Test results taken from US10105357B2, “Indication of antibiotic drugs for preparation of cancer inhibition pharmaceutical composition” (LAUNX BIOMEDICAL CO., LTD., priority 2014, dated 2018).
Counter-ions that a name gives are not always drawn. Like-named read-outs stand apart in the source and are kept apart here.

What was measured:
[1] = test system: TSGH-8301 (Urinary Bladder Carcinoma); assay: Cell viability analysis, bladder cancer TSGH-8301; format: cell-based, human; conditions: for viability at 10 µM: Homo sapiens, 72 h
[2] = test system: C-33A (Cervical carcinoma); assay: Cell viability analysis, cervical cancer C-33A; format: cell-based, human; conditions: for viability at 10 µM: Homo sapiens, C-33-A, 72 h, read-out: The results of antibiotic drug inhibiting cancer cell lines (cell viability analysis), C-33A
[3] = test system: A375 (Amelanotic Melanoma); assay: Cell viability analysis, skin cancer A375; format: cell-based, human; conditions: for viability at 10 µM: Homo sapiens, A-375, 72 h
[4] = test system: Hep3B (hepatocellular carcinoma); assay: Cell viability analysis, hepatic cancer Hep3B; format: cell-based, human; conditions: for viability at 10 µM: Homo sapiens, Hep3B, 72 h, read-out: The results of antibiotic drug inhibiting cancer cell lines (cell viability analysis), Hep3B
[5] = test system: HeLa (Cervix Adenocarcinoma); assay: Cell viability analysis, cervical cancer HeLa; format: cell-based, human; conditions: for viability at 10 µM: Homo sapiens, HeLa, 72 h
NIH: OVCAR-3 = assay: Cell viability analysis, ovarian cancer NIH: OVCAR-3; format: cell-based, human; conditions: for viability at 10 µM: Homo sapiens, OVCAR-3, 72 h, read-out: The results of antibiotic drug inhibiting cancer cell lines (cell viability analysis), NIH-OVCAR-3
[6] = test system: 786-O (Renal adenocarcinoma); assay: Cell viability analysis, renal cancer 786-O; format: cell-based, human; conditions: for viability at 10 µM: Homo sapiens, 786-0, 72 h, read-out: The results of antibiotic drug inhibiting cancer cell lines (cell viability analysis), 786-O
[7] = test system: LoVo (Colorectal Adenocarcinoma); assay: Cell viability analysis, colon cancer LoVo; format: cell-based, human; conditions: for viability at 10 µM: Homo sapiens, LoVo, 72 h
[8] = test system: A549 (Lung Adenocarcinoma); assay: Cell viability analysis, lung cancer A549; format: cell-based, human; conditions: for viability at 10 µM: Homo sapiens, A549, 72 h
[9] = test system: HI650 (Lung Adenocarcinoma); assay: Cell viability analysis, lung cancer HI650; format: cell-based, human; conditions: for viability at 10 µM: Homo sapiens, NCI-H1650, 72 h
[10] = test system: BCC (basal cell carcinoma); assay: Cell viability analysis, skin cancer BCC; format: cell-based, human; conditions: Homo sapiens, 72 h, read-out: The results of antibiotic drug inhibiting cancer cell lines (cell viability analysis), BCC
[11] = test system: MCF7 (Mammary Gland, Adenocarcinoma); assay: Cell viability analysis, breast cancer MCF7; format: cell-based, human; conditions: Homo sapiens, MCF7, 72 h
[12] = test system: SAS (Tongue squamous cell carcinoma); assay: Cell viability analysis, tongue cancer SAS; format: cell-based, human; conditions: for viability at 10 µM: Homo sapiens, 72 h, read-out: The results of antibiotic drug inhibiting cancer cell lines (cell viability analysis), SAS
U-2OS = assay: Cell viability analysis, osteosarcoma U-2OS; format: cell-based, human; conditions: for viability at 10 µM: Homo sapiens, U2OS, 72 h, read-out: The results of antibiotic drug inhibiting cancer cell lines (cell viability analysis), U2OS
[13] = test system: MDA-MB-231 (Mammary Gland, Adenocarcinoma); assay: Cell viability analysis, breast cancer MDA-MB-231; format: cell-based, human; conditions: for viability at 10 µM: Homo sapiens, MDA-MB-231, 72 h, read-out: The results of antibiotic drug inhibiting cancer cell lines (cell viability analysis), MDA-MB231
[14] = test system: HCT116 (p53+) (Colorectal Carcinoma)
[15] = test system: PC3 (p53−) (Prostate Adenocarcinoma); assay: Cell viability analysis, prostate cancer PC3; format: cell-based, human; conditions: for viability at 10 µM: Homo sapiens, 72 h
cancer cell lines = assay: Cell viability analysis (WST-1) on cancer cell lines; format: cell-based, human; conditions: drug 10 μM, 72 hours, WST-1; Table 3
[16] = test system: AGS (Gastric Adenocarcinoma); assay: Cell viability analysis, gastric cancer AGS; format: cell-based, human; conditions: for viability at 10 µM: Homo sapiens, 72 h
[17] = test system: MKN-45 (Gastric Adenocarcinoma); assay: Cell viability analysis, gastric cancer MKN-45; format: cell-based, human; conditions: for viability at 10 µM: Homo sapiens, MKN-45, 72 h
TOV-21G = assay: Cell viability analysis, ovarian cancer TOV-21G; format: cell-based, human; conditions: Homo sapiens, TOV21G, 72 h, read-out: The results of antibiotic drug inhibiting cancer cell lines (cell viability analysis), TOV-21G
AsPC-1 = assay: Cell viability analysis, pancreatic cancer AsPC-1; format: cell-based, human; conditions: for viability at 10 µM: Homo sapiens, ASPC1, 72 h, read-out: The results of antibiotic drug inhibiting cancer cell lines (cell viability analysis), AsPC-1
[18] = test system: HL-60 (Acute Promyelocytic Leukemia); assay: Cell viability analysis, leukemia HL-60; format: cell-based, human; conditions: Homo sapiens, HL-60, 72 h, read-out: cell viability (survival rate), HL-60, drug 10 μM, 72 hours, WST-1, OD450 nm
[19] = test system: HepG2 (Hepatocellular Carcinoma); assay: Cell viability analysis, hepatic cancer HepG2; format: cell-based, human; conditions: for viability at 10 µM: Homo sapiens, HepG2, 72 h
BxPC-3 = assay: Cell viability analysis, pancreatic cancer BxPC-3; format: cell-based, human; conditions: Homo sapiens, BXPC-3, 72 h, read-out: The results of antibiotic drug inhibiting cancer cell lines (cell viability analysis), BxPC-3
T24 = assay: Cell viability analysis, bladder cancer T24; format: cell-based, human; conditions: Homo sapiens, T-24, 72 h, read-out: The results of antibiotic drug inhibiting cancer cell lines (cell viability analysis), T24
[20] = read-out: The results of antibiotic drug inhibiting cancer cell lines (cell viability analysis), TSGH-8301, TSGH-8301, repeated experiment
[21] = read-out: cell viability (survival rate), TSGH, drug 10 μM, 72 hours, WST-1, OD450 nm
[22] = read-out: The results of antibiotic drug inhibiting cancer cell lines (cell viability analysis), A375, A375, repeated experiment
[23] = read-out: cell viability (survival rate), A375, drug 10 μM, 72 hours, WST-1, OD450 nm
[24] = read-out: The results of antibiotic drug inhibiting cancer cell lines (cell viability analysis), HeLa, repeated experiment
[25] = read-out: cell viability (survival rate), HeLa, drug 10 μM, 72 hours, WST-1, OD450 nm
[26] = read-out: The results of antibiotic drug inhibiting cancer cell lines (cell viability analysis), LoVo, repeated experiment
[27] = read-out: cell viability (survival rate), LoVo, drug 10 μM, 72 hours, WST-1, OD450 nm
[28] = read-out: The results of antibiotic drug inhibiting cancer cell lines (cell viability analysis), A549, A549, repeated experiment
[29] = read-out: cell viability (survival rate), A549, drug 10 μM, 72 hours, WST-1, OD450 nm
[30] = read-out: The results of antibiotic drug inhibiting cancer cell lines (cell viability analysis), H1650, H1650, repeated experiment
[31] = read-out: cell viability (survival rate), H1650, drug 10 μM, 72 hours, WST-1, OD450 nm
[32] = read-out: The results of antibiotic drug inhibiting cancer cell lines (cell viability analysis), MCF-7, MCF-7, repeated experiment
[33] = read-out: cell viability (survival rate), MCF7, drug 10 μM, 72 hours, WST-1, OD450 nm
[34] = read-out: The results of antibiotic drug inhibiting cancer cell lines (cell viability analysis), PC-3, PC-3, repeated experiment
[35] = read-out: cell viability (survival rate), PC3, drug 10 μM, 72 hours, WST-1, OD450 nm
[36] = read-out: The results of antibiotic drug inhibiting cancer cell lines (cell viability analysis), AGS, repeated experiment
[37] = read-out: cell viability (survival rate), AGS, drug 10 μM, 72 hours, WST-1, OD450 nm
[38] = read-out: The results of antibiotic drug inhibiting cancer cell lines (cell viability analysis), MKN-45, MKN-45, repeated experiment
[39] = read-out: cell viability (survival rate), MKN-45, drug 10 μM, 72 hours, WST-1, OD450 nm
[40] = read-out: The results of antibiotic drug inhibiting cancer cell lines (cell viability analysis), HepG2, HepG2, repeated experiment
[41] = read-out: cell viability (survival rate), HepG2, drug 10 μM, 72 hours, WST-1, OD450 nm

SMILES	viability at 10 µM [1, 20]	viability at 10 µM [2]	viability at 10 µM [4]	viability at 10 µM [5, 24]	viability at 10 µM [6]	viability at 10 µM [7, 26]	viability at 10 µM [8, 28]	viability at 10 µM [9, 30]	viability at 10 µM [10]	viability at 10 µM [11, 32]	viability at 10 µM [12]	viability at 10 µM (U-2OS)	viability at 10 µM [13]	viability [14]	viability at 10 µM [15, 34]	inhibition effect on different cancer cell lines (cancer cell lines)	viability at 10 µM [16, 36]	viability at 10 µM [17, 38]	viability at 10 µM (TOV-21G)	viability at 10 µM (AsPC-1)	further results
CC(=O)NC[C@H]1CN(c2ccc(N3CCOCC3)c(F)c2)C(=O)O1 [Linezolid (Zyvox), Linezolid]	99.7%	132%	99.9%	89.2%	98.6%	89.5%	82.1%	95.6%	67.2%	73.1%	84%	99.8%	96.2%	107%	115%	significant inhibition effect	104%	137%	78.2%	92.6%	viability at 10 µM [1, 21]: 58.2%; viability at 10 µM [3, 22]: 82.8%; viability at 10 µM [3, 23]: 57.6%; viability at 10 µM [5, 25]: 93.7%; viability at 10 µM (NIH: OVCAR-3): 110%; viability at 10 µM [7, 27]: 91%; viability at 10 µM [8, 29]: 40.2%; viability at 10 µM [9, 31]: 51.3%; viability at 10 µM [11, 33]: 66.3%; viability at 10 µM [15, 35]: 67%; viability at 10 µM [16, 37]: 70.8%; viability at 10 µM [17, 39]: 65.9%; viability at 10 µM [18]: 129%; viability at 10 µM [19, 40]: 107%; viability at 10 µM [19, 41]: 91.3%; viability at 10 µM (BxPC-3): 95.6%
CCOc1ccc(NC(C)=O)cc1 [Phenacetin]	128%	114%	106%	110%	92%	87.7%	87.6%	90.1%	119%	92.9%	81.9%	63.9%	91.7%	102%	133%	significant inhibition effect	122%	123%	95.8%	90.5%	viability at 10 µM [1, 21]: 23.3%; viability at 10 µM [3, 22]: 106%; viability at 10 µM [3, 23]: 54.1%; viability at 10 µM [5, 25]: 57.2%; viability at 10 µM (NIH: OVCAR-3): 105%; viability at 10 µM [7, 27]: 48.5%; viability at 10 µM [8, 29]: 34.4%; viability at 10 µM [9, 31]: 39.1%; viability at 10 µM [11, 33]: 62.7%; viability at 10 µM [15, 35]: 40.4%; viability at 10 µM [16, 37]: 40.4%; viability at 10 µM [17, 39]: 75.1%; viability at 10 µM [18]: 95.3%; viability at 10 µM [19, 40]: 121%; viability at 10 µM [19, 41]: 72.5%; viability at 10 µM (BxPC-3): 73.2%
CN(C)CCCN1c2ccccc2CCc2ccc(Cl)cc21 [Clomipramine hydrochloride (Anafranil), Clomipramine hydrochloride]	139%	118%	135%	113%	80.3%	65.7%	86.4%	103%	124%	65.9%	51.6%	58.4%	117%	137%	91.2%	significant inhibition effect	122%	125%	118%	77.2%	viability at 10 µM (T24): 109%; viability at 10 µM (BxPC-3): 78.3%
N#C[C@@H]1C[C@@H]2C[C@H]2N1C(=O)[C@@H](N)C12CC3CC(CC(O)(C3)C1)C2 [Saxagliptin (BMS-477118, Onglyza)]	–	–	–	–	–	–	–	–	–	–	–	–	–	107%	–	–	–	–	–	–	The results of antibiotic drug inhibiting cancer cell lines (cell viability analysis), TSGH-8301 [1]: 119.6; The results of antibiotic drug inhibiting cancer cell lines (cell viability analysis), C-33A [2]: 104.4; The results of antibiotic drug inhibiting cancer cell lines (cell viability analysis), A375 [3]: 111.4; The results of antibiotic drug inhibiting cancer cell lines (cell viability analysis), Hep3B [4]: 122.9; The results of antibiotic drug inhibiting cancer cell lines (cell viability analysis), HeLa [5]: 114.7; The results of antibiotic drug inhibiting cancer cell lines (cell viability analysis), NIH-OVCAR-3 (NIH: OVCAR-3): 114.2; The results of antibiotic drug inhibiting cancer cell lines (cell viability analysis), 786-O [6]: 98.33; The results of antibiotic drug inhibiting cancer cell lines (cell viability analysis), LoVo [7]: 82.99; The results of antibiotic drug inhibiting cancer cell lines (cell viability analysis), A549 [8]: 98.68; The results of antibiotic drug inhibiting cancer cell lines (cell viability analysis), H1650 [9]: 101.5; The results of antibiotic drug inhibiting cancer cell lines (cell viability analysis), SAS [12]: 62.71; The results of antibiotic drug inhibiting cancer cell lines (cell viability analysis), U2OS (U-2OS): 62.9; The results of antibiotic drug inhibiting cancer cell lines (cell viability analysis), MDA-MB231 [13]: 102; The results of antibiotic drug inhibiting cancer cell lines (cell viability analysis), PC-3 [15]: 112; The results of antibiotic drug inhibiting cancer cell lines (cell viability analysis), AGS [16]: 121.3; The results of antibiotic drug inhibiting cancer cell lines (cell viability analysis), MKN-45 [17]: 117.7; The results of antibiotic drug inhibiting cancer cell lines (cell viability analysis), AsPC-1 (AsPC-1): 75.97; The results of antibiotic drug inhibiting cancer cell lines (cell viability analysis), HepG2 [19]: 118
